Test results taken from US10780101B2, “Amide derivatives of squalamine for the treatment of infections” (VIRBAC, priority 2016, dated 2020).
In brackets after ≈: the same amount, converted by molar mass.

Legend:
E. coli Animal (1956) = experiment: MIC determination, E. coli animal (1956); assay type: cell-based; conditions: Escherichia coli; Gram-negative; Mueller-Hinton medium, 24 h at 37° C.
Protocol: (§1) A negative control (2 mL of sterile culture medium)
(§2) A positive control (1940 μL of culture medium+40 μL of DMSO+20 μL of the bacterial suspension) from a thawed biological strain (the biological strains are stored at −80° C. in glycerol).
(§3) The tubes were incubated at 37° C. for 24 hours at 100 rpm.
(§4) The microorganisms were handled under a type L2 laboratory fume cupboard and, before any handling, a UV cycle was programmed and only sterile material was used. […] The chemical compounds to be tested were prepared in a DMSO/methanol mixture (50/50) at a concentration of 5 mg/mL.
(§5) After 24 hours of incubation, a measurement of the optical density was taken using a spectrophotometer at 600 nm, collecting 100 μL of the bacterial suspension diluted in 900 μL of the sterile culture medium. This test required the use of a 96-well plate and the required volume of the microbial suspension to be seeded was calculated for an OD corresponding to a value equal to 0.01 in each well. In this plate, the first line corresponded to the negative control (195 μL of sterile culture medium in each well), the second line corresponded to the positive control (seeded culture medium supplemented with 2% of DMSO), and the third line was loaded twice with bacterial suspension; 8 μL of test product were placed in each well. Thereafter, a 0.5 cascade dilution was performed from this line.
(§6) The first column served as inhibition control. A sterile filter was then placed on the microplate, allowing the passage of gases but not of contaminants. The microplate was incubated at 37° C. under a humid atmosphere for 24 hours.
(§7) NB: The medium used is Mueller-Hinton (MH) medium for bacteria. All the tests were performed in duplicate.
(§8) After incubation, the filter was replaced with a transparent film, and an OD reading was then taken in an iEMS plate spectrophotometer at 620 nm. Calculation of the minimum inhibitory concentration (MIC) was performed.

[1] = system: S. aureus Human ATCC 25923; experiment: MIC determination, S. aureus human ATCC 25923; assay type: cell-based; conditions: Staphylococcus aureus, ATCC25923; Gram-positive; Mueller-Hinton medium, 24 h at 37° C.
Protocol: as §1, §2, §3, §4, §5, §6, §7, §8

[2] = system: E. faecalis Human ATCC 29212; experiment: MIC determination, E. faecalis human ATCC 29212; assay type: cell-based; conditions: Enterococcus faecalis, ATCC29212; Gram-positive; Mueller-Hinton medium, 24 h at 37° C.
Protocol: as §1, §2, §3, §4, §5, §6, §7, §8

E. coli Human ATCC 28922 = experiment: MIC determination, E. coli human ATCC 28922; assay type: cell-based; conditions: Escherichia coli, ATCC28922; Gram-negative; Mueller-Hinton medium, 24 h at 37° C.
Protocol: as §1, §2, §3, §4, §5, §6, §7, §8

S. aureus Animal (340) = experiment: MIC determination, S. aureus animal (340); assay type: cell-based; conditions: Staphylococcus aureus; Gram-positive; Mueller-Hinton medium, 24 h at 37° C.
Protocol: as §1, §2, §3, §4, §5, §6, §7, §8

[3] = system: S. intermedius Animal (1051997); experiment: MIC determination, S. intermedius animal (1051997); assay type: cell-based; conditions: Staphylococcus intermedius; Gram-positive; Mueller-Hinton medium, 24 h at 37° C.
Protocol: as §1, §2, §3, §4, §5, §6, §7, §8

[4] = system: P. aeruginosa Animal (1051575); experiment: MIC determination, P. aeruginosa animal (1051575); assay type: cell-based; conditions: Pseudomonas aeruginosa; Gram-negative; Mueller-Hinton medium, 24 h at 37° C.
Protocol: as §1, §2, §3, §4, §5, §6, §7, §8

[5] = system: P. aeruginosa Human ATCC 27853; experiment: MIC determination, P. aeruginosa human ATCC 27853; assay type: cell-based; conditions: Pseudomonas aeruginosa, ATCC27853; Gram-negative; Mueller-Hinton medium, 24 h at 37° C.
Protocol: as §1, §2, §3, §4, §5, §6, §7, §8

CHO-K1 cells = experiment: WST1 cytotoxicity test on CHO-K1 cells; assay type: cell-based, Chinese hamster; conditions: Cricetulus griseus, CHO-K1, 24 h, read-out: IC50 (μg/mL) CHO
Protocol: Test WST1 was used to measure the cytotoxic activity of the products. This is a colorimetric test which makes it possible to measure the viability and the degree of cell proliferation. It is based on cleavage of the colorless tetrazolium salts WST-1 (4-[3-(4-iodophenyl)-2-(4-nitrophenyl)-2H-5-tetrazolio]-1,3-benzene disulfonate) with mitochondrial dehydrogenases to the yellow-colored formazan derivative, which may be quantified by spectrophotometry at 420-480 nm.
The WST1 test was performed on Chinese hamster ovary cells. The CHO-K1 cells (ATCC, USA) are kept in culture in McCoy's 5A medium supplemented with 10% fetal calf serum, 2 mM of L-glutamine and a mixture of penicillin-streptomycin (100 U/ml: 10 μg/ml). The culture is incubated at 37° C. under an atmosphere enriched in CO2 (5%), and subcultured every two days.
The cells are transferred into 96-well plates (25000 cells/mL) in whole McCoy's 5A medium, and maintained for 24 hours at 37° C. under a humid atmosphere enriched in CO2 (5%). Increasing concentrations of test products are added to the wells in double tests and 8 growth controls containing the cells in the medium alone are included in each series of tests. After 24 hours at 37° C. (5% CO2), the culture medium is removed, the cells are rinsed in phosphate buffer (PBS) and 50 μL of PBS containing 10% of reagent WST1 are added to each well. After 20 minutes of incubation at 37° C., the results are read by spectrophotometry at 450 nm.
The results are expressed in dose-response relationships, modeled by nonlinear regression analysis using the TableCurve software. The 50% inhibitory concentration (IC50) represents the concentration of product that is capable of reducing the cell viability by 50%.

P. aeruginosa (1051575) = experiment: Potentiation of doxycycline activity (combination MIC); assay type: cell-based, Pseudomonas aeruginosa; conditions: for MIC - P. aeruginosa (1051575): content of compound of formula (I) to restore the doxycycline activity (at 2 μg/mL): in presence of doxycycline 2 μg/mL, 24 hours at 37° C.

Row | Structure (SMILES) | MIC (E. coli Animal (1956)) [mg/L] | MIC [1] [mg/L] | MIC [2] [mg/L] | MIC (E. coli Human ATCC 28922) [mg/L] | MIC (S. aureus Animal (340)) [mg/L] | MIC [3] [mg/L] | MIC [4] [mg/L] | MIC [5] [mg/L] | IC50 (CHO-K1 cells) [µg/mL] | MIC - P. aeruginosa (1051575): content of compound of formula (I) to restore the doxycycline activity (at 2 μg/mL) (P. aeruginosa (1051575)) [mg/L] | synergism when administered with doxycycline (P. aeruginosa (1051575); doxycycline at 2 μg/mL)
1 | CNC(=O)CC[C@@H](C)[C@H]1CCC2C3C(CC[C@@]21C)[C@@]1(C)CC[C@H](NCCCNCCCCNCCCN)CC1C[C@H]3O (stereo partly shown) [Compound (33)] | 7 (≈ 11.9 µM) | 3.5 (≈ 5.93 µM) | 14 (≈ 23.7 µM) | 14 (≈ 23.7 µM) | 1 (≈ 1.7 µM) | 0.8 (≈ 1.36 µM) | 2 (≈ 3.39 µM) | 7 (≈ 11.9 µM) | 35 (≈ 59.3 µM) | 1 | 
2 | CC(C)NC(=O)CC[C@@H](C)[C@H]1CCC2C3C(C[C@H](O)[C@@]21C)[C@@]1(C)CC[C@H](NCCCN(C)CCCN)CC1C[C@H]3O (stereo partly drawn) [(26), 3β-(bis(3-aminopropyl)methylamine)-N-isopropylcholamide] | 56 (≈ 97.1 µM) | 28 (≈ 48.5 µM) | 56 (≈ 97.1 µM) | 28 (≈ 48.5 µM) | 28 (≈ 48.5 µM) | 14 (≈ 24.3 µM) | 56 (≈ 97.1 µM) | 112 (≈ 194 µM) | 80 (≈ 139 µM) | 4 | 
3 | CC(C)NC(=O)CC[C@@H](C)[C@H]1CCC2C3C(C[C@H](O)[C@@]21C)[C@@]1(C)CC[C@H](NCCCN2CCN(CCCN)CC2)CC1C[C@H]3O (stereo partly shown) [(6)] | 64 (≈ 101 µM) | 16 (≈ 25.3 µM) | 32 (≈ 50.6 µM) | 32 (≈ 50.6 µM) | 32 (≈ 50.6 µM) | 16 (≈ 25.3 µM) | 64 (≈ 101 µM) | 218 (≈ 345 µM) | 100 (≈ 158 µM) | 8 | 
4 | CC(C)NC(=O)CC[C@@H](C)[C@H]1CCC2C3C(C[C@H](O)[C@@]21C)[C@@]1(C)CC[C@H](NCCCNCCCCNCCCN)CC1C[C@H]3O (stereo partly drawn) [Compound (31), 3β-spermino-N-isopropylcholamide] | 32 (≈ 50.5 µM) | 4 (≈ 6.31 µM) | 8 (≈ 12.6 µM) | 16 (≈ 25.2 µM) | 8 (≈ 12.6 µM) | 4 (≈ 6.31 µM) | 32 (≈ 50.5 µM) | 64 (≈ 101 µM) | 40 (≈ 63.1 µM) | 1 | 
5 | CC(C)NC(=O)CC[C@@H](C)[C@H]1CCC2C3C(CC[C@@]21C)[C@@]1(C)CC[C@H](NCCCN2CCN(CCCN)CC2)CC1C[C@H]3O (stereo partly drawn) [(9), 3β-(1,4-bis(3-aminopropyl)piperazine)-N-isopropylchenodeoxycholamide] | 15 (≈ 24.4 µM) | 16 (≈ 26 µM) | 62 (≈ 101 µM) | 15 (≈ 24.4 µM) | 8 (≈ 13 µM) | 8 (≈ 13 µM) | 62 (≈ 101 µM) | 124 (≈ 201 µM) | 90 (≈ 146 µM) | 2 | noteworthy synergism
6 | CC(C)NC(=O)CC[C@@H](C)[C@H]1CCC2C3C(CC[C@@]21C)[C@@]1(C)CC[C@H](NCCCN(CCCN)CCCN)CC1C[C@@H]3O (stereo partly drawn) [(48), 3β-(tris(3-aminopropyl)amine)-N-isopropylursodeoxycholamide] | 120 (≈ 199 µM) | 30 (≈ 49.7 µM) | 60 (≈ 99.3 µM) | > 120 | 15 (≈ 24.8 µM) | 8 (≈ 13.2 µM) | 120 (≈ 199 µM) | 120 (≈ 199 µM) | 42 (≈ 69.5 µM) | 4 | 
7 | CNC(=O)CC[C@@H](C)[C@H]1CCC2C3C(CC[C@@]21C)[C@@]1(C)CC[C@H](NCCCN2CCN(CCCN)CC2)CC1C[C@H]3O (stereo partly drawn) [(12), 3β-(1,4-bis(3-aminopropyl)piperazine)-N-methylchenodeoxycholamide] | 15 (≈ 25.5 µM) | 8 (≈ 13.6 µM) | 15 (≈ 25.5 µM) | 30 (≈ 51 µM) | 4 (≈ 6.8 µM) | 2 (≈ 3.4 µM) | 30 (≈ 51 µM) | 60 (≈ 102 µM) | 50 (≈ 85 µM) | 8 | 
8 | CC(C)NC(=O)CC[C@@H](C)[C@H]1CCC2C3CCC4C[C@@H](NCCCNCCCN)CC[C@]4(C)C3CC[C@@]21C (stereo partly drawn) [(18), 3β-norspermidino-N-isopropyllithocholamide] | 3 (≈ 5.65 µM) | 6 (≈ 11.3 µM) | 12 (≈ 22.6 µM) | 26 (≈ 49 µM) | 3 (≈ 5.65 µM) | 0.8 (≈ 1.51 µM) | 26 (≈ 49 µM) | 104 (≈ 196 µM) | 20 (≈ 37.7 µM) | 0.8 | 
9 | CC(C)NC(=O)CC[C@@H](C)[C@H]1CCC2C3CCC4C[C@@H](NCCCNCCCCNCCCN)CC[C@]4(C)C3C[C@H](O)[C@@]21C (stereo partly drawn) [(30), 3β-spermino-N-isopropyldeoxycholamide] | 30 (≈ 48.5 µM) | 8 (≈ 12.9 µM) | 15 (≈ 24.3 µM) | 15 (≈ 24.3 µM) | 8 (≈ 12.9 µM) | 1 (≈ 1.62 µM) | 4 (≈ 6.47 µM) | 4 (≈ 6.47 µM) | 30 (≈ 48.5 µM) | 1 | 
10 | CC(C)N(C(=O)CC[C@@H](C)[C@H]1CCC2C3C(CC[C@@]21C)[C@@]1(C)CC[C@H](NCCCNCCNCCCN)CC1C[C@H]3O)C(C)C (stereo partly drawn) [(54), 3β-(bis(3-aminopropyl)ethylenediamine)-N,N-diisopropylchenodeoxycholamide] | 8 (≈ 12.7 µM) | 4 (≈ 6.33 µM) | 2 (≈ 3.16 µM) | 125 (≈ 198 µM) | 4 (≈ 6.33 µM) | 2 (≈ 3.16 µM) | 16 (≈ 25.3 µM) | 32 (≈ 50.6 µM) | 22 (≈ 34.8 µM) | 2 | 
11 | CC(C)NC(=O)CC[C@@H](C)[C@H]1CCC2C3C(CC[C@@]21C)[C@@]1(C)CC[C@H](NCCNCCNCCNCCNCCN)CC1C[C@H]3O (stereo partly drawn) [(22), 3β-(pentaethylenehexamine)-N-isopropylchenodeoxycholamide] | 32 (≈ 49.4 µM) | 8 (≈ 12.3 µM) | 32 (≈ 49.4 µM) | 32 (≈ 49.4 µM) | 8 (≈ 12.3 µM) | 2 (≈ 3.09 µM) | 65 (≈ 100 µM) | 130 (≈ 201 µM) | 120 (≈ 185 µM) | 4 | 
12 | CC(C)NC(=O)CC[C@@H](C)[C@H]1CCC2C3C(CC[C@@]21C)[C@@]1(C)CC[C@H](NCCCN(C)CCCN)CC1C[C@@H]3O (stereo partly drawn) [(28), 3β-(bis(3-aminopropyl)methylamine)-N-isopropylursodeoxycholamide] | 112 (≈ 200 µM) | 28 (≈ 49.9 µM) | 56 (≈ 99.8 µM) | 56 (≈ 99.8 µM) | 28 (≈ 49.9 µM) | 14 (≈ 25 µM) | 112 (≈ 200 µM) | 112 (≈ 200 µM) | 28 (≈ 49.9 µM) | 7 | 
